Results from patent publication US11744877B2, “Method for permeabilizing tumor vasculature using a tumor vasculature permeabilizing molecule to improve access of a therapeutic or diagnostic agent to a tumor” (OXFORD UNIVERSITY INNOVATION LIMITED, priority 2010, dated 2023).

Assay: Accumulation of intravascularly injected oncolytic adenovirus in EL4 tumours (hexon staining, qPCR of viral DNA)
Assay type: in vivo, SCID-beige female mice
Conditions: 1 μg TNF; tumours 100 mm^3; versus vehicle; FIG. 1B
Method: All adenoviruses were grown in 293 cells, and purified by double banding in CsCl gradients with Benzonase treatment after the first banding. Viral particle (VP) number was determined by measuring DNA content, using a PicoGreen assay (Invitrogen, Carlsbad, Calif.) (Murakami and McCaman, 1999, Anal Biochem; 274(2):283-8).
EL4 cells (2×10^6) were injected subcutaneously and allowed to form tumours in the left flank of 4- to 6-week-old SCID-beige female mice. Evans Blue was administered intravenously to compare permeability in 1 μg TNFα-treated animals versus controls. Oncolytic adenovirus was injected intravascularly when tumours were 100 mm^3 and relative distribution was assessed by hexon staining and quantitative polymerase chain reaction measurement of viral DNA.
To assess distribution of adenovirus in 1 μg TNF-treated animals versus controls, oncolytic adenovirus was injected intravascularly when tumours were 100 mm^3 and the relative distribution was assessed by hexon staining and quantitative polymerase chain reaction measurement of viral DNA. Three controls were also used.
Virus accumulation in the tumour was compared to that in the liver and in the spleen.

| Compound | increase in accumulation (uptake) of intravenously administered adenovirus particles in tumours |
| --- | --- |
| COc1cc(/C=C\c2ccc(OC)c(OP(=O)(O)O)c2OP(=O)(O)O)cc(OC)c1OC [combrestatin (OXI4503), combrestatin] | increases were small compared to TNF |
| Angiotensin II (DRVYIHPF; Angiotensin-2; UniProt P01019 25-32, looked up) [control reported to increase tumour vessel permeability] | increases were small compared to TNF |
